Measurements from US20090022803A1, “Oral Formulations For Delivery of Catecholic Butanes Including Ndga Compounds” (priority 2005, published 2009).
Where two headings read alike, the source gives them in different places.

Format: physicochemical
Conditions: for Dissolution After Heating: 90° C.
Experimental: A 10 mL solution of M4N at a concentration of about 10 mg/mL in 40% BP-β-CD was made as follows. About 10 mL of the 40% HP-β-CD solution were added to a glass beaker containing a stir bar. The beaker was placed on a magnetic plate and the stir bar was set to stir at medium speed. About […] of M4N were slowly added to the 40% HP-β-CD in the center of the beaker with the aid of a spatula. The M4N/40% HP-β-CD mixture was stirred for 2 hr or until all M4N was uniformly suspended without any clumps being present. The M4N/40% HP-β-CD mixture was optionally heated at 80° C. for about 30 min. (or longer if a larger volume of solution was desired, for example, 1 hr at 80° C. for 100 mL of the M4N/HP-β-CD mixture), or longer as needed to ensure complete dissolution of M4N. […] The final M4N/40% HP-β-CD solution was stored at room temperature and was kept protected from light. This process may be scaled up or down to obtain the requisite volume or concentration of M4N. Formulations containing M4N in other cyclodextrin solutions may be similarly made, such as, for example, by substituting HP-β-CD in the process described above with other cyclodextrins. […]
A 10 mL solution of M4N at a concentration of about 10 mg/mL in 50% HP-β-CD/0.5% HPMC was made as follows. About 10 mL of the 50% HP-β-CD/0.5% HPMC solution were added to a glass beaker containing a stir bar. The beaker was placed on a magnetic plate and the stir bar was set to stir at medium speed. About 100 mg of M4N were slowly added to the 50% HP-β-CD/0.5% HPMC in the center of the beaker with the aid of a spatula. The M4N/50% HP-β-CD/0.5% HPMC mixture was stirred for 24 hr or until all M4N was uniformly suspended without any clumps being present. The M4N/50% HP-β-CD/0.5% HPMC mixture was heated at about 90° C. for about 30 min. (or longer if a larger volume of solution was desired, for example, 1 hr at 90° C. for 500 mL of the M4N/50% HP-β-CD/0.5% HPMC mixture), or longer as needed to ensure complete dissolution of M4N. […] The final M4N/50% HP-β-CD/0.5% HPMC solution was stored at room temperature and was kept protected from light.
A 10 mL solution of M4N at a concentration of about 20 mg/mL in 5% EC (w/v) (the “EC formulation”) was made as follows. About 10 mL of 5% EC formulation, made as described above, were added to a glass beaker containing a stir bar. The beaker was placed on a magnetic plate and the stir bar was set to stir at medium speed, and covered with a round Teflon® cover. About 200 mg of M4N were slowly added to the 5% EC formulation in the center of the beaker with the aid of a spatula to prevent M4N from sticking to the beaker wall. The M4N/EC mixture was stirred for 2 hr or until all M4N had dissolved or was uniformly suspended without any clumps being present. The M4N/EC mixture was heated at about 60° C. for about 30 min. (or longer if a larger volume of solution was desired, for example, 1 hr at 60° C. for 500 mL of the M4N/EC mixture), or longer as needed to ensure complete dissolution of M4N. […] The final M4N/EC solution was stored at room temperature and was kept protected from light.
A 10 mL solution of M4N at a concentration of about 50 mg/mL in sesame oil was made as follows. About 10 mL of sesame oil were added to a glass beaker containing a stir bar. The beaker was placed on a magnetic plate and the stir bar was set to stir at medium speed. About 500 mg of M4N were slowly added to the sesame oil in the center of the beaker with the aid of a spatula to prevent M4N from sticking to the beaker wall. The M4N/sesame oil mixture was stirred for about 2 hr or until all M4N had dissolved or was uniformly suspended without any clump being present. The M4N/sesame oil mixture was heated at about 60° C. for about 30 min. (or longer if a larger volume of solution was desired, for example, 1 hr at 60° C. for 500 mL of the M4N/sesame oil mixture), or longer as need to ensure complete dissolution of M4N. […]

[1] = M4N 1 mg/mL in 40% HP-β-CD, 1% PVP (w/v)
[2] = M4N 1 mg/mL in 50% HP-β-CD, 0.5% HPMC
[3] = M4N 1 mg/mL in 50% HP-β-CD, 1.25% PVP (w/v)
[4] = M4N 3.13 mg/mL in 5% HP-β-CD, 12.5% PEG 300 (v/v)
[5] = M4N 4.17 mg/mL in 6.7% HP-β-CD, 16.7% PEG 300 (v/v)
[6] = M4N 6.25 mg/mL in 10% HP-β-CD, 25% PEG 300 (v/v)
Wherever Dissolution After Cool Down is given: key: N represents 'No'; Y represents 'Yes.'.

COc1ccc(C[C@@H](C)[C@@H](C)Cc2ccc(OC)c(OC)c2)cc1OC [Formulation M4N, meso-1,4-bis(3,4-dimethoxyphenyl)-2,3-dimethylbutane]
N: Dissolution After Rotation (M4N 1 mg/mL in 1.50% β-CD) | Dissolution After Rotation (M4N 1 mg/mL in 2% MC (Low viscosity)) | Dissolution After Rotation (M4N 1 mg/mL in 2.3% HPMC) | Dissolution After Rotation (M4N 1 mg/mL in 5% γ-CD) | Dissolution After Rotation (M4N 1 mg/mL in 15% α-CD) | Dissolution After Rotation (M4N 1 mg/mL in 20% HP-β-CD) | Dissolution After Rotation (M4N 1 mg/mL in 20% HP-β-CD in saline) | Dissolution After Rotation (M4N 1 mg/mL in 30% HP-β-CD) | Dissolution After Rotation (M4N 1 mg/mL in 40% HP-β-CD) | Dissolution After Heating at X° C. [1] | Dissolution After Rotation [1] | Dissolution After Rotation (M4N 1 mg/mL in 40% HP-β-CD, 2.5% PG (v/v)) | Dissolution After Rotation (M4N 1 mg/mL in 50% HP-β-CD) | Dissolution After Rotation [2] | Dissolution After Rotation [3] | Dissolution After Rotation [4] | Dissolution After Rotation [5] | Dissolution After Rotation [6] | Dissolution After Rotation (M4N 10 mg/mL in 1.50% β-CD) | Dissolution After Rotation (M4N 10 mg/mL in 2.3% HPMC) | Dissolution After Rotation (M4N 10 mg/mL in 5% EC in EtOH) | Dissolution After Rotation (M4N 10 mg/mL in 15% α-CD) | Dissolution After Rotation (M4N 10 mg/mL in 20% HP-β-CD) | Dissolution After Rotation (M4N 10 mg/mL in 20% HP-β-CD in saline) | Dissolution After Rotation (M4N 10 mg/mL in 30% HP-β-CD)
N at 90 °C: Dissolution After Heating (M4N 1 mg/mL in 2.3% HPMC) | Dissolution After Heating (M4N 10 mg/mL in 2.3% HPMC)
Suspension: Dissolution After Rotation (M4N 1 mg/mL in 50% HP-β-CD, 0.5% CMC) | Dissolution After Rotation (M4N 1 mg/mL in 50% HP-β-CD, 0.5% HPMC, other experiment, no heat)
Y: Dissolution After Rotation (M4N 1 mg/mL in 5% EC in EtOH) | Dissolution After Cool Down (M4N 1 mg/mL in 20% HP-β-CD) | Dissolution After Cool Down (M4N 1 mg/mL in 30% HP-β-CD) | Dissolution After Cool Down (M4N 1 mg/mL in 40% HP-β-CD) | Dissolution After Cool Down (M4N 1 mg/mL in 50% HP-β-CD) | Dissolution After Cool-Down [2] | Dissolution After Cool Down [3] | Dissolution After Cool-Down (M4N 1 mg/mL in Corn Oil) | Dissolution After Cool Down [4] | Dissolution After Cool Down [5] | Dissolution After Cool Down [6] | Dissolution After Cool-Down (M4N 10 mg/mL in 5% EC in EtOH) | Dissolution After Cool Down (M4N 10 mg/mL in 30% HP-β-CD)
N at 80°: Dissolution After Heating at X° C. (M4N 1 mg/mL in 40% HP-β-CD, 2.5% PG (v/v), 80°)
suspension: Dissolution After Rotation (M4N 10 mg/mL in 1% HPMC)
N at 90°: Dissolution After Heating at X° C. (M4N 1 mg/mL in 1.50% β-CD, 90°) | Dissolution After Heating at X° C. (M4N 1 mg/mL in 5% γ-CD, 90°) | Dissolution After Heating at X° C. (M4N 1 mg/mL in 15% α-CD, 90°) | Dissolution After Heating at X° C. (M4N 10 mg/mL in 1.50% β-CD, 90°) | Dissolution After Heating at X° C. (M4N 10 mg/mL in 15% α-CD, 90°) | Dissolution After Heating at X° C. (M4N 10 mg/mL in 20% HP-β-CD, 90°)
Y at 90°: Dissolution After Heating at X° C. (M4N 1 mg/mL in 20% HP-β-CD, 90°) | Dissolution After Heating at X° C. (M4N 1 mg/mL in 30% HP-β-CD, 90°) | Dissolution After Heating at X° C. (M4N 1 mg/mL in 50% HP-β-CD, 1.25% PVP (w/v), 90°) | Dissolution After Heating at X° C. (M4N 1 mg/mL in 50% HP-β-CD, 90°) | Dissolution After Heating at X° C. (M4N 10 mg/mL in 30% HP-β-CD, 90°)
Y at 80°: Dissolution After Heating at X° C. (M4N 1 mg/mL in 40% HP-β-CD, 80°)
Y at 60°: Dissolution After Heating at X° C. (M4N 3.13 mg/mL in 5% HP-β-CD, 12.5% PEG 300 (v/v), 60°) | Dissolution After Heating at X° C. (M4N 4.17 mg/mL in 6.7% HP-β-CD, 16.7% PEG 300 (v/v), 60°) | Dissolution After Heating at X° C. (M4N 6.25 mg/mL in 10% HP-β-CD, 25% PEG 300 (v/v), 60°)
